Measured values published in PubChem BioAssay (NCI).
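Results reflect a 48-hour exposure of cells in 96-well plates to compound at five concentrations. TGI denotes the concentration required for complete inhibition of growth.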

Experiments:
Assay in all cases: NCI anticancer screen, dose series, 48 h
[1] = test system: MOLT-4 leukemia
[2] = test system: HOP-92 NSCLC
[3] = test system: A549 NSCLC
[4] = test system: NCI-H522 lung
[5] = test system: SK-MEL-2 melanoma
[6] = test system: BT-549 breast
[7] = test system: UACC-257 melanoma
[8] = test system: SW-620 colon
[9] = test system: HCT-116 colon
[10] = test system: CAKI-1 renal
[11] = test system: LOX IMVI melanoma
[12] = test system: OVCAR-3 ovarian
[13] = test system: MDA-MB-435
[14] = test system: UACC-62 melanoma
[15] = test system: HS 578T breast
[16] = test system: RXF 393 renal
[17] = test system: MDA-MB-231 breast
[18] = test system: MCF7 breast
[19] = test system: SF-295 CNS
[20] = test system: EKVX NSCLC
[21] = test system: DU-145 prostate
[22] = test system: SF-539 CNS
[23] = test system: T-47D breast
[24] = test system: K-562 leukemia
[25] = test system: IGROV1 ovarian
[26] = test system: NCI-H460 lung
[27] = test system: HOP-62 NSCLC
[28] = test system: SN12C renal
[29] = test system: 786-0 renal
[30] = test system: MDA-N
[31] = test system: SNB-75 CNS
[32] = test system: SNB-19 CNS
[33] = test system: HCC-2998 colon
[34] = test system: UO-31 renal
[35] = test system: U251 CNS
[36] = test system: SK-MEL-28 melanoma
[37] = test system: SF-268 CNS
[38] = test system: COLO 205 colon
[39] = test system: HCT-15 colon
[40] = test system: CCRF-CEM leukemia
[41] = test system: NCI/ADR-RES ovarian
[42] = test system: HT29 colon
[43] = test system: OVCAR-5 ovarian
[44] = test system: OVCAR-8 ovarian
[45] = test system: PC-3 prostate
[46] = test system: RPMI-8226 leukemia
[47] = test system: NCI-H23 lung
[48] = test system: A498 renal
[49] = test system: OVCAR-4 ovarian
[50] = test system: SR leukemia
[51] = test system: ACHN renal
[52] = test system: KM12 colon
[53] = test system: MALME-3M melanoma
[54] = test system: M14 melanoma
[55] = test system: HL-60(TB) leukemia
[56] = test system: SK-MEL-5 melanoma
[57] = test system: TK-10 renal
[58] = test system: SK-OV-3 ovarian
[59] = test system: NCI-H226 lung

CCN(CC)CCC(=O)c1ccc(Oc2ccc(Cl)cc2)cc1
TGI [1]: 42.2 µM | TGI [2]: 32.8 µM | TGI [3]: > 100 µM | TGI [4]: 38 µM | TGI [5]: 32 µM | TGI [6]: 32.6 µM | TGI [7]: 28.6 µM | TGI [8]: 44.4 µM | TGI [9]: 32 µM | TGI [10]: 37.9 µM | TGI [11]: 28.8 µM | TGI [12]: 28.6 µM | TGI [13]: 34.2 µM | TGI [14]: 35.2 µM | TGI [15]: 59 µM | TGI [16]: 43.2 µM | TGI [17]: 29.2 µM | TGI [18]: 55.9 µM | TGI [19]: 32.4 µM | TGI [20]: 42.2 µM | TGI [21]: 47.8 µM | TGI [22]: 42.1 µM | TGI [23]: 44.3 µM | TGI [24]: > 100 µM | TGI [25]: 41.8 µM | TGI [26]: 29.2 µM | TGI [27]: 24.1 µM | TGI [28]: 31.2 µM | TGI [29]: 28.3 µM | TGI [30]: 29.6 µM | TGI [31]: 25.5 µM | TGI [32]: > 100 µM | TGI [33]: 34.2 µM | TGI [34]: 32.4 µM | TGI [35]: 33.1 µM | TGI [36]: 32.6 µM | TGI [37]: 34.5 µM | TGI [38]: 45.1 µM | TGI [39]: 38.8 µM | TGI [40]: 58.1 µM | TGI [41]: 56.7 µM | TGI [42]: 47.2 µM | TGI [43]: 29.9 µM | TGI [44]: 44.9 µM | TGI [45]: 28.3 µM | TGI [46]: 16.3 µM | TGI [47]: 34 µM | TGI [48]: 31.7 µM | TGI [49]: 36.1 µM | TGI [50]: 48.7 µM | TGI [51]: 25.8 µM | TGI [52]: 32.2 µM | TGI [53]: 34.8 µM | TGI [54]: 28.3 µM | TGI [55]: 59.8 µM | TGI [56]: 31.2 µM | TGI [57]: 33.1 µM

COc1cc(C=C2C(C)=NN(c3cccc(Cl)c3)C23SCC(=O)N3c2nc3ccccc3s2)ccc1O (stereo not given)
TGI [1]: 35.1 µM | TGI [2]: 45.4 µM | TGI [3]: > 100 µM | TGI [4]: 41.5 µM | TGI [5]: 39.5 µM | TGI [6]: 58.8 µM | TGI [7]: > 100 µM | TGI [8]: 96.9 µM | TGI [9]: 65.3 µM | TGI [10]: > 96.2 µM | TGI [11]: > 69 µM | TGI [58]: 50.8 µM | TGI [12]: > 80.1 µM | TGI [13]: > 100 µM | TGI [14]: 96.1 µM | TGI [15]: 32.4 µM | TGI [16]: 62.7 µM | TGI [17]: 54.6 µM | TGI [18]: > 100 µM | TGI [19]: > 100 µM | TGI [20]: > 100 µM | TGI [21]: > 100 µM | TGI [22]: > 58.4 µM | TGI [23]: > 100 µM | TGI [24]: 37.2 µM | TGI [25]: > 100 µM | TGI [26]: > 100 µM | TGI [27]: 91.5 µM | TGI [28]: > 100 µM | TGI [29]: > 91.5 µM | TGI [30]: > 100 µM | TGI [59]: > 80.7 µM | TGI [32]: > 100 µM | TGI [33]: > 83.5 µM | TGI [34]: > 92.2 µM | TGI [35]: 41.4 µM | TGI [36]: > 100 µM | TGI [37]: 57.9 µM | TGI [38]: 32.9 µM | TGI [39]: > 93.6 µM | TGI [40]: 15.8 µM | TGI [41]: > 96.7 µM | TGI [42]: > 100 µM | TGI [43]: > 100 µM | TGI [44]: 50.5 µM | TGI [45]: 58.1 µM | TGI [46]: 30.7 µM | TGI [47]: 84.2 µM | TGI [48]: 66 µM | TGI [49]: > 100 µM | TGI [50]: 29.2 µM | TGI [51]: 77.5 µM | TGI [52]: > 95.1 µM | TGI [53]: 47.6 µM | TGI [54]: > 100 µM | TGI [55]: 26.7 µM | TGI [56]: 40.7 µM | TGI [57]: > 100 µM
